Test results published in patent publication US8148510B2, “Antifungal polypeptides” (Pioneer Hi-Bred International, Inc., priority 2004, dated 2012).
“Also recorded” adds a separate entry of the source. Like-named read-outs stand apart in the source and are kept apart here.

B1: LBNL-9827-2: antifungal polypeptide from Monascus ruber IMV 00127; 3 additional N-terminal amino acids versus SEQ ID NO:7 (protein)
chain: DVQLSKFGGECSLKHNTCTYLKGGKNHVVNCGSAANKKCKSDRHHCEYDEHHKRVDCQTPV

Legend:
[1] = test system: Fusarium verticillioides (FVE); type: cell-based
[2] = test system: Fusarium graminearum (FGR); type: cell-based; conditions: plate assay, qualitative
[3] = test system: Colletotrichum graminicola (CGR); type: cell-based; conditions: plate assay, qualitative
Diplodia maydis (DMA) = type: cell-based; conditions: plate assay, qualitative
[4] = test system: Fusarium verticillioides (FVE); test: antifungal activity assay of transgenic maize callus extracts; type: cell-based; conditions: against FVE, qualitative
[5] = test system: F. verticilioides line that expresses the reporter gene β-glucuronidase (GUS); test: Fusarium verticillioides challenge assay of maize seedlings (GUS activity); type: in vivo; conditions: maize seedlings transformed with PHP22300; three days after spore exposure; 4 explants per event
C. graminicola [6] = test: upper stalk resistance of transgenic maize plants; type: in vivo, Colletotrichum graminicola; conditions: T0 transgenic maize, uppermost stalk internode, about five days after inoculation, 10 cm^2 area around inoculation site; control 84.7±2.6%
C. graminicola [7] = test: lower stalk resistance of transgenic maize plants; type: in vivo, Colletotrichum graminicola; conditions: T0 transgenic maize, lowest internode inoculated 10 DAP, scored after 21 days, five lowermost internodes; empty vector control 4.0±0.2

| Molecule | antifungal activity against FVE [1] | antifungal activity against FGR ([2]; listed as SEQ ID NO:1) | antifungal activity against CGR ([3]; listed as SEQ ID NO:1) | antifungal activity against DMA (Diplodia maydis (DMA); listed as SEQ ID NO:1) | antifungal activity of protein produced and isolated from transgenic maize callus [4] | average GUS activity (correlates with fungal biomass) relative to controls [5] | mean percent infected area (C. graminicola [6]) | mean score (number of internodes showing more than 75% disease) (C. graminicola [7]) | antifungal activity against FGR [2] | antifungal activity against CGR [3] | antifungal activity against DMA (Diplodia maydis (DMA)) | antifungal activity against FGR ([2]; listed as SEQ ID NO:9) | antifungal activity against CGR ([3]; listed as SEQ ID NO:9) | antifungal activity against DMA (Diplodia maydis (DMA); listed as SEQ ID NO:9) |
| --- | --- | --- | --- | --- | --- | --- | --- | --- | --- | --- | --- | --- | --- | --- |
| LBNL-5220: antifungal polypeptide (55 amino acids, mature mass 6174 Da) isolated from Penicillium simplicissimum fermentation broth (LKYTGTCTRANNQCKYKGQNDRDTFVKCPTFANKKCTRDGAPCSFDSYSRAVTCD) | showed antifungal activity; also recorded: display antifungal activity | showed antifungal activity; also recorded: display antifungal activity | showed antifungal activity; also recorded: display antifungal activity | showed antifungal activity; also recorded: display antifungal activity | has antifungal activity | decrease in average GUS activity | 54.4±1.4% | 2.2±0.1 |  |  |  |  |  |  |
| LBNL-9827-1: antifungal polypeptide from Monascus ruber IMV 00127; identical to SEQ ID NO:9 without 3 N-terminal amino acids (LSKFGGECSLKHNTCTYLKGGKNHVVNCGSAANKKCKSDRHHCEYDEHHKRVDCQTPV) | active against FVE; also recorded: display antifungal activity |  |  |  |  |  |  |  | display antifungal activity | display antifungal activity | display antifungal activity |  |  |  |
| LBNL-5197/8-2: antifungal polypeptide from Penicillium miczyinskii strain K01-17A4 (LSKYGGECSLAHNTCTYLKGGKNQVVACGTAANKRCKTDRHHCEYDEYHKTVDCQTPV) | anti-FVE activity; also recorded: display antifungal activity |  |  |  |  |  |  |  | display antifungal activity | display antifungal activity | display antifungal activity |  |  |  |
| B1 | inhibited FVE, FGR, CGR, and DMA in a dose-dependent fashion; also recorded: inhibited Colletotrichum graminicola, Diplodia maydis, Fusarium graminearum, and Fusarium verticillioides in a dose-dependent fashion; also recorded: display antifungal activity |  |  |  |  |  |  |  |  |  |  | inhibited FVE, FGR, CGR, and DMA in a dose-dependent fashion; also recorded: inhibited Colletotrichum graminicola, Diplodia maydis, Fusarium graminearum, and Fusarium verticillioides in a dose-dependent fashion; also recorded: display antifungal activity | inhibited FVE, FGR, CGR, and DMA in a dose-dependent fashion; also recorded: inhibited Colletotrichum graminicola, Diplodia maydis, Fusarium graminearum, and Fusarium verticillioides in a dose-dependent fashion; also recorded: display antifungal activity | inhibited FVE, FGR, CGR, and DMA in a dose-dependent fashion; also recorded: inhibited Colletotrichum graminicola, Diplodia maydis, Fusarium graminearum, and Fusarium verticillioides in a dose-dependent fashion; also recorded: display antifungal activity |
